What follows are targets tested with Nc1nc2c(ncn2[C@@H]2O[C@H](COP(=O)(O)OP(=O)(O)OP(=O)(O)O)[C@@H](O)[C@H]2O)c(=O)[nH]1 [guanosine triphosphate] (assay: pEC50 of GTP-induced change in protein thermal stability (2D-TPP)).
Method: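 2D thermal proteome profiling in Jurkat crude lysate. Lysate was treated 10 min at room temperature with Na-GTP (0, 0.001, 0.01, 0.1, 0.5 mM), heated to 12 temperatures (42-63.9 °C) for 3 min, and soluble protein was quantified by TMT10 LC-MS/MS. pEC50 is the median over replicates of dose-response fits (FDR-controlled hits).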
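For pEC50 of ATP-induced change in protein thermal stability (2D-TPP) in this document: lysate dosed with Na-ATP at 0 0.005 0.05 0.5 and 2 mM.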

UniProt P49189, sequence (P49189 whole entry): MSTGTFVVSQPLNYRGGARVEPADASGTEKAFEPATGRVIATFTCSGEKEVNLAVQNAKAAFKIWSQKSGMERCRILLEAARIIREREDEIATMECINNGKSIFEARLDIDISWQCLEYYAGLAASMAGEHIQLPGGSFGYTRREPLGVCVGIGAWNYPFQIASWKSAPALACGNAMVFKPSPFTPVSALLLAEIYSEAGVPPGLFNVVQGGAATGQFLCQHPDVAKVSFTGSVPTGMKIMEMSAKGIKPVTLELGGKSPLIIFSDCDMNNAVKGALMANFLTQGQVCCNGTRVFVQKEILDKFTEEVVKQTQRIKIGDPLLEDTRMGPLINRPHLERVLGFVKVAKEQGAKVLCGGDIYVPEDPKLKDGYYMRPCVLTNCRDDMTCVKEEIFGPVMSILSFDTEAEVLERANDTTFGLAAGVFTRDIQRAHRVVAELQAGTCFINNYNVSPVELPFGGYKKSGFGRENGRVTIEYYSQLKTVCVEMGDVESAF
UniProt P0C0S5, sequence (P0C0S5 whole entry): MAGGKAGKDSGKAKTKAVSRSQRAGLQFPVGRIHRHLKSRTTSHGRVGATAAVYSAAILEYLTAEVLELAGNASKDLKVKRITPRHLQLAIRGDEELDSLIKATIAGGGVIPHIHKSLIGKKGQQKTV
UniProt O00506, sequence (O00506 whole entry, looked up): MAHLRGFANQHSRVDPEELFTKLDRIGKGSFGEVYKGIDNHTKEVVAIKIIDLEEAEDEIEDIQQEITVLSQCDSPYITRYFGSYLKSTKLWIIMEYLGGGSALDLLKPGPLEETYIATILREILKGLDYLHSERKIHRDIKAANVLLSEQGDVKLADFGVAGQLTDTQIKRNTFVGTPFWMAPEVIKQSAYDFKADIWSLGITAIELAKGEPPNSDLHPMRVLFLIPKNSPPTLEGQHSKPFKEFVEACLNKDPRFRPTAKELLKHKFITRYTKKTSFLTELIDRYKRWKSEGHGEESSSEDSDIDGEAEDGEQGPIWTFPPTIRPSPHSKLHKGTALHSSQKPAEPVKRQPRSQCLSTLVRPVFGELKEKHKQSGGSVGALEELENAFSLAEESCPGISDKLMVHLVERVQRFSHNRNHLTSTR
UniProt P07737, sequence (P07737 whole entry): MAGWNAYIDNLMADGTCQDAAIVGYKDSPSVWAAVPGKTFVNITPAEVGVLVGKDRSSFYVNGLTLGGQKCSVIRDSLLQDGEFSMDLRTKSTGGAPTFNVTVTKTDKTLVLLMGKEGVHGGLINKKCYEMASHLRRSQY
UniProt Q7L4I2, sequence (Q7L4I2 whole entry): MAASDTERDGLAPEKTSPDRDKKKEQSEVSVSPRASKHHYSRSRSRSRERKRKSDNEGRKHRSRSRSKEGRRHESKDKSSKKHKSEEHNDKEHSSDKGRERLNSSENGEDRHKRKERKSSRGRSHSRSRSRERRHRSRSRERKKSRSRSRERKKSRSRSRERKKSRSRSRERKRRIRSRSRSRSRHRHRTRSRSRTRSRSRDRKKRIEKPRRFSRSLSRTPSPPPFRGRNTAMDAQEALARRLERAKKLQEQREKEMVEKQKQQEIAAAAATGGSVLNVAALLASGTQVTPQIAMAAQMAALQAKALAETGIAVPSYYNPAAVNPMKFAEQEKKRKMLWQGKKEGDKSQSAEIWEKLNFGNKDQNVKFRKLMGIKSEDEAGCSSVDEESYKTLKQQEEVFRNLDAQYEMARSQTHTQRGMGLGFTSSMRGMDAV
UniProt P60953, sequence (P60953 whole entry, looked up): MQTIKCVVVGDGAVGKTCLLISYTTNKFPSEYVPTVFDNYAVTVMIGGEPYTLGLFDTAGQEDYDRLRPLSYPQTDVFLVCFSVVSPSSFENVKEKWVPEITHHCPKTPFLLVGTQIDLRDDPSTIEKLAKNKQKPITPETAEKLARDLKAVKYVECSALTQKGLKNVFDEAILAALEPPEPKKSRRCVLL
UniProt P30419, sequence (P30419 whole entry): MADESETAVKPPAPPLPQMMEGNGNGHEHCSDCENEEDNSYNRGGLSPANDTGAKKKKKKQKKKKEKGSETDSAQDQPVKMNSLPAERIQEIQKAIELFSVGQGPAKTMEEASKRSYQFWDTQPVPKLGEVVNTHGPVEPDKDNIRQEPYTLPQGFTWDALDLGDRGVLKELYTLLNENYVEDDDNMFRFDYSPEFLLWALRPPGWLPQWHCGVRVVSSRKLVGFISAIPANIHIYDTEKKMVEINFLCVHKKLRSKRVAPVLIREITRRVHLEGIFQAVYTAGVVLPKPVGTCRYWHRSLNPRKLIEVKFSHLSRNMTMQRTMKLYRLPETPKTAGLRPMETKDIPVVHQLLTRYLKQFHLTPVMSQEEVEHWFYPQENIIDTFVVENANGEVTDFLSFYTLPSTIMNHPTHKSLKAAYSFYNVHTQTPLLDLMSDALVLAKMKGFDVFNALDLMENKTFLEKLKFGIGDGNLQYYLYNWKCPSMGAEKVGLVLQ
UniProt P36405, sequence (P36405 whole entry): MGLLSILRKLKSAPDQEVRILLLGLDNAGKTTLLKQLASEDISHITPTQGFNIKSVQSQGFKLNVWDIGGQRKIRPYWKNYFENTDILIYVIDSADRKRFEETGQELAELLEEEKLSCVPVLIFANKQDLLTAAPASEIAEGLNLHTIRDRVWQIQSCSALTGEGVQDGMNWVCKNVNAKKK
UniProt P50570, sequence (P50570 whole entry): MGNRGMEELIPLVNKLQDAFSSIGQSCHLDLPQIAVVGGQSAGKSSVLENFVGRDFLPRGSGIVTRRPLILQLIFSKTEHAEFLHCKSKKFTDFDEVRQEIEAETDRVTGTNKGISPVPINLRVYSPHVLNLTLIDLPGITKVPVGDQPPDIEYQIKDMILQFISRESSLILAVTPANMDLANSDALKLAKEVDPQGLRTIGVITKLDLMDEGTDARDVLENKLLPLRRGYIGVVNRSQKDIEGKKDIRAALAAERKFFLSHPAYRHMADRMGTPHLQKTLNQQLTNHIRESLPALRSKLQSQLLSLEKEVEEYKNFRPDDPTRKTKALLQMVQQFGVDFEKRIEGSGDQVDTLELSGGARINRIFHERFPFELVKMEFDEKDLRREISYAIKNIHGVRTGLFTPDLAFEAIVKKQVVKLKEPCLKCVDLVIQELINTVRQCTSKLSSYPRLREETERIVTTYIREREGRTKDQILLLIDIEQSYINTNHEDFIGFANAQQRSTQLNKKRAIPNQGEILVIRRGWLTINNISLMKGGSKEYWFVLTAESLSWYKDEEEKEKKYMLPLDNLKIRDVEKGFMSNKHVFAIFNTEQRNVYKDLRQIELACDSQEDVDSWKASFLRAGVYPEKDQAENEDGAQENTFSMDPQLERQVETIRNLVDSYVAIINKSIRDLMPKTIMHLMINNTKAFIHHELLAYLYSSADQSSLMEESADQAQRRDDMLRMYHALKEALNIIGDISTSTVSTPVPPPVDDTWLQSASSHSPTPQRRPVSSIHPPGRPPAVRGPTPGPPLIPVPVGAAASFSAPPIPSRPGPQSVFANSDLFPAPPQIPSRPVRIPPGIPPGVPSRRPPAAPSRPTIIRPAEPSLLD
UniProt Q9UHW5, sequence (Q9UHW5 whole entry): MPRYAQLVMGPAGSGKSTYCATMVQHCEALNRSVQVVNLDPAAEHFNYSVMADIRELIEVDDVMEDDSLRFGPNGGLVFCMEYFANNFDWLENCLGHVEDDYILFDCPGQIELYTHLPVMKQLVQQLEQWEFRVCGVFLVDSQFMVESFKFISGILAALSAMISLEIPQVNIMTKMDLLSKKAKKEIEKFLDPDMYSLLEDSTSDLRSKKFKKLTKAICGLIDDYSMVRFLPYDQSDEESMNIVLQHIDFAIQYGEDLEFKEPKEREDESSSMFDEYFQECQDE
UniProt Q86Y56, sequence (Q86Y56 whole entry): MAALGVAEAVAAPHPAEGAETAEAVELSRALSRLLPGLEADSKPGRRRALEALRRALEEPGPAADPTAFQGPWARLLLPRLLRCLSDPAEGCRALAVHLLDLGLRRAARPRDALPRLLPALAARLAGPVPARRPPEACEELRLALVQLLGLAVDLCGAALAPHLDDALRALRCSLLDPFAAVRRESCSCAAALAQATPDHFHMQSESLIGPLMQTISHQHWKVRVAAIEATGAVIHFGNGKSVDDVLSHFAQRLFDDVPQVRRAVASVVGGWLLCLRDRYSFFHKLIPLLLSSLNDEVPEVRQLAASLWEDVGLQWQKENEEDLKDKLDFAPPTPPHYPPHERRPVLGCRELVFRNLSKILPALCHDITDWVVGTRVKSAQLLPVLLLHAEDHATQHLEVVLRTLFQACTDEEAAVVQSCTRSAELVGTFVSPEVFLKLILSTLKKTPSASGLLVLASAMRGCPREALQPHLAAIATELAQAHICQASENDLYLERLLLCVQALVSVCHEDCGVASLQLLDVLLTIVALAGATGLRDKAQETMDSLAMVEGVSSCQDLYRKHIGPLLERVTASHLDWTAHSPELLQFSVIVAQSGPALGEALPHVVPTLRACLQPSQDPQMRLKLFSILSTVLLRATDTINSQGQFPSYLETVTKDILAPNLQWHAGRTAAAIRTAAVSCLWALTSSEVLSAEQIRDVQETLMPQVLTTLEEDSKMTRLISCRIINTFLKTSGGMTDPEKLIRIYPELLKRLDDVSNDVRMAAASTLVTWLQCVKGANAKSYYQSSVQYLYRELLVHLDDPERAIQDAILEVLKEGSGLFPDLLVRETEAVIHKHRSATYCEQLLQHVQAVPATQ
UniProt Q13243, sequence (Q13243 whole entry): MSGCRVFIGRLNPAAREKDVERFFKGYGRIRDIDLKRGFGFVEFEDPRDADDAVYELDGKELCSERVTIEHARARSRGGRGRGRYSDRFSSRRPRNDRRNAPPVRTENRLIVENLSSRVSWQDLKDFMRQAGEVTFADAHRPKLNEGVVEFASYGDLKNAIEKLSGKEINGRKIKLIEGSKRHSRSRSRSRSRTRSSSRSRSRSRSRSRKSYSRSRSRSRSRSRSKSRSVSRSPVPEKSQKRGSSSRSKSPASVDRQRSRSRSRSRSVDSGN

Target | pEC50
PANK4 (effect direction: stabilized) (UniProt Q9NVE7) | 3.55
RRAS (effect direction: stabilized) (UniProt P10301) | 3.84
NKIRAS2 (effect direction: stabilized) (UniProt Q9NYR9) | 4.17
UniProt P63000 (effect direction: stabilized) | 3.84
RAB33B (effect direction: stabilized) (UniProt Q9H082) | 4.12
ARL3 (effect direction: stabilized) (UniProt P36405) | 4.36
H2AFX (effect direction: stabilized) (UniProt P16104) | 3.49
TUFM (effect direction: stabilized) (UniProt P49411) | 4.41
UniProt Q9BSD7 (effect direction: stabilized) | 3.96
GFM1 (effect direction: stabilized) (UniProt Q96RP9) | 4.04
ATL2 (effect direction: stabilized) (UniProt Q8NHH9) | 3.88
UniProt P48730 (effect direction: stabilized) | 3.86
RAB23 (effect direction: stabilized) (UniProt Q9ULC3) | 4.02
NUBPL (effect direction: stabilized) (UniProt Q8TB37) | 3.93
GDI2 (effect direction: stabilized) (UniProt P50395) | 3.74
GIMAP4 (effect direction: stabilized) (UniProt Q9NUV9) | 3.72
HSPD1 (effect direction: destabilized) (UniProt P10809) | 4.2
MMAA (effect direction: stabilized) (UniProt Q8IVH4) | 4.08
DRG1 (effect direction: stabilized) (UniProt Q9Y295) | 4.7

Target | pEC50
RAB3D (effect direction: stabilized) (UniProt O95716) | 3.85
ABCD3 (effect direction: stabilized) (UniProt P28288) | 3.69
LSG1 (effect direction: stabilized) (UniProt Q9H089) | 3.88
DNM2 (effect direction: stabilized) (UniProt P50570) | 3.78
ARL1 (effect direction: stabilized) (UniProt P40616) | 3.92
RAB11B (effect direction: stabilized) (UniProt Q15907) | 4.23
SAR1B (effect direction: stabilized) (UniProt Q9Y6B6) | 4.16
ALG5 (effect direction: stabilized) (UniProt Q9Y673) | 4.68
H2AFY (effect direction: stabilized) (UniProt O75367) | 3.67
RFC4 (effect direction: stabilized) (UniProt P35249) | 3.91
ARF3 (effect direction: stabilized) (UniProt P61204) | 4.12
GSPT2 (effect direction: stabilized) (UniProt Q8IYD1) | 4.27
GNL2 (effect direction: stabilized) (UniProt Q13823) | 4.2
UniProt P60953 (effect direction: stabilized) | 3.59
ARL6 (effect direction: stabilized) (UniProt Q9H0F7) | 4.1
RAB3A (effect direction: stabilized) (UniProt P20336) | 4
SRP72 (effect direction: stabilized) (UniProt O76094) | 4.01
UniProt Q86Y56 (effect direction: stabilized) | 4.09
RSRC2 (effect direction: stabilized) (UniProt Q7L4I2) | 3.79

Target | pEC50
RAC2 (effect direction: stabilized) (UniProt P15153) | 3.98
UniProt P62834 (effect direction: stabilized) | 4.38
RAP2A (effect direction: stabilized) (UniProt P10114) | 4.47
DNM1 (effect direction: stabilized) (UniProt Q05193) | 3.62
RECQL (effect direction: destabilized) (UniProt P46063) | 3.84
KRAS (effect direction: stabilized) (UniProt P01116) | 4.32
ARF4 (effect direction: stabilized) (UniProt P18085) | 4.57
RAB27A (effect direction: stabilized) (UniProt P51159) | 3.92
TAP1 (effect direction: stabilized) (UniProt Q03518) | 3.74
POFUT1 (effect direction: stabilized) (UniProt Q9H488) | 3.78
RFC3 (effect direction: stabilized) (UniProt P40938) | 3.85
CDC123 (effect direction: stabilized) (UniProt O75794) | < 3.3
UniProt O00506 (effect direction: stabilized) | 3.86
PCK2 (effect direction: stabilized) (UniProt Q16822) | 3.79
SRP68 (effect direction: stabilized) (UniProt Q9UHB9) | 4.12
UniProt Q08170 (effect direction: stabilized) | 3.79
UniProt Q13243 (effect direction: stabilized) | 3.6
TUBE1 (effect direction: stabilized) (UniProt Q9UJT0) | 4.31

The targets below were run with Nc1ncnc2c1ncn2[C@@H]1O[C@H](COP(=O)(O)OP(=O)(O)OP(=O)(O)O)[C@@H](O)[C@H]1O [adenosine triphosphate] (assay: pEC50 of ATP-induced change in protein thermal stability (2D-TPP)).
Method in brief: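 Each of three independent experiments used Jurkat crude lysate given five concentrations including vehicle (10 min, room temperature), followed by 3 min at one of 12 temperatures from 42 to 63.9 °C and NP40 with benzonase (60 min, 4 °C). TMT LC-MS/MS quantified soluble protein after ultracentrifugation, expressed as fold changes against vehicle at each temperature with median normalisation. For pEC50, dose-response curves were fitted per replicate over adjacent temperature pairs, and hits were called through permutation-based false discovery rate control.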

Target | pEC50
ATXN10 (effect direction: stabilized) (UniProt Q9UBB4) | < 2.7
HSP90AA1 (effect direction: stabilized) (UniProt P07900) | > 5.3
GAPDH (effect direction: stabilized) (UniProt P04406) | < 2.7
USO1 (effect direction: stabilized) (UniProt O60763) | < 2.7
PLS1 (effect direction: stabilized) (UniProt Q14651) | < 2.7
IKBKG (effect direction: stabilized) (UniProt Q9Y6K9) | 3.42
PRKACB (effect direction: stabilized) (UniProt P22694) | 3.91
MTHFSD (effect direction: stabilized) (UniProt Q2M296) | 3.62
RPA1 (effect direction: stabilized) (UniProt P27694) | 3.58
NCAPG (effect direction: stabilized) (UniProt Q9BPX3) | 3.93
CARS2 (effect direction: stabilized) (UniProt Q9HA77) | 3.14
MRTO4 (effect direction: destabilized) (UniProt Q9UKD2) | < 2.7
CMPK1 (effect direction: stabilized) (UniProt P30085) | 3.27
PUS1 (effect direction: stabilized) (UniProt Q9Y606) | 2.99
CCT7 (effect direction: stabilized) (UniProt Q99832) | 4.39
GPKOW (effect direction: stabilized) (UniProt Q92917) | 3.19

Target | pEC50
UniProt P62269 (effect direction: destabilized) | < 2.7
ALDH9A1 (effect direction: stabilized) (UniProt P49189) | 2.9
GPN3 (effect direction: destabilized) (UniProt Q9UHW5) | 2.74
MDP1 (effect direction: destabilized) (UniProt Q86V88) | < 2.7
UniProt P24928 (effect direction: destabilized) | 3.32
PFN1 (effect direction: stabilized) (UniProt P07737) | 3.57
FOXK2 (effect direction: stabilized) (UniProt Q01167) | 3.76
SMC2 (effect direction: stabilized) (UniProt O95347) | 3.49
SUB1 (effect direction: destabilized) (UniProt P53999) | 3.37
DARS2 (effect direction: stabilized) (UniProt Q6PI48) | 4.12
UniProt Q9UPN6 (effect direction: stabilized) | 3.96
FOXK1 (effect direction: stabilized) (UniProt P85037) | 3.36
NMT1 (effect direction: stabilized) (UniProt P30419) | 3.06
UniProt P0C0S5 (effect direction: stabilized) | 2.96
USP14 (effect direction: stabilized) (UniProt P54578) | < 2.7
NUDC (effect direction: stabilized) (UniProt Q9Y266) | < 2.7

From the supplement of paper PMC6411743
